What was measured:
[1] = tested on: sebocytes from an immortalized human line; experiment: Reduction of lipogenesis: lipids produced by immortalized human sebocytes, RED NILE dye fluorescence; format: cell-based; settings: for QUANTITY OF LIPIDS MEASURED / REDUCTION IN LIPOGENESIS/CONTROL: 2 days of treatment; for QUANTITY OF LIPIDS MEASURED: control = 100; for REDUCTION IN LIPOGENESIS/CONTROL: vs culture medium control
Protocol: The test which was developed consisted of measuring, after 2 days of treatment, the quantity of lipids produced by sebocytes from an immortalized human line (in the presence or absence of active agents). The fluorescence emitted by RED NILE dye was measured at two distinct wavelengths to quantify the amount of characteristic neutral lipids of the sebum. Glucocorticoids are known to reduce the production of sebum in non […] subjects (Leveque, J. L. et al., (1991)). Thus, cortisol was selected as a reference, while the culture medium alone was selected as the control (no supplemental excipient was added either to the cortisol or to the azelaic acid, these latter being dissolved in the culture medium under the test conditions). […] Its activity was moderate compared with the pharmaceutical reference. Nevertheless, it should have a significant cosmetic action in a suitable formulation, if necessary by making repeated applications.

SZ 95 sebocytes = experiment: Tolerability: cytotoxicity by production of LDH in the culture medium; format: cell-based, human; settings: 1 μM
Protocol: The tolerability of azelaic acid was measured by measuring the cytotoxicty of the product using SZ 95 sebocytes (Zouboulis, Seltmann et al., 1999). The test conditions were the same as those given in Example 1. The cytotoxicity was measured by the production of LDH in the culture medium.

cutaneous micrococcaceae = settings: topical gel containing 20% azelaic acid, male subjects with clinical acne; cited from earlier work
Propionibacterium sp = settings: topical gel containing 20% azelaic acid, male subjects with clinical acne; cited from earlier work
sebum excretion = settings: topical 20% azelaic acid gel, individuals with physiological acne; cited from earlier work
excreted sebum = settings: doses used to treat acne (SKINOREN); subjects with acne, seborrheic skin without acne, normoseborrheic; cited from earlier work
human keratinocytes = settings: concentrations of the order of 1 mM; cited from earlier work
sebum production = settings: cited from earlier work

For `O=C(O)CCCCCCCC(=O)O` [Azelaic acid, azelaic acid], the “effect on sebum production by sebocytes (in words)” value ([1]; 1 μM) was “inhibits sebum production”, the “QUANTITY OF LIPIDS MEASURED” value ([1]; 1 μM) was 93 and the “REDUCTION IN LIPOGENESIS/CONTROL” value ([1]; 1 μM) was −7%. For the same molecule, the “reduction in lipid secretion” value ([1]; 1 μM, model immortalized culture of human sebocytes) was 7%, the “activity compared with the pharmaceutical reference (cortisol)” value ([1]; azelaic acid 1 μM vs cortisol 0.1 μM) was “moderate” and the “sebocyte survival (in words)” value (SZ 95 sebocytes) was “improves sebocyte survival”. For the same molecule, the “LDH VARIATION/CONTROL” value (SZ 95 sebocytes; same conditions as Example 1) was −20%, the “reduction of the number of cutaneous micrococcaceae, factor” value (cutaneous micrococcaceae) was 224 and the “reduction of the number of Propionibacterium sp, factor” value (Propionibacterium sp) was 30. For the same molecule, the “effect on sebum excretion (in words)” value (sebum excretion) was “did not cause a significant modification in sebum excretion”, the “effect on quantity and composition of the excreted sebum (in words)” value (excreted sebum) was “did not modify either the quantity or the composition of the excreted sebum” and the “effect on proliferation of human keratinocytes (in words)” value (human keratinocytes) was “reduces the proliferation of human keratinocytes”. The “ability to reduce sebum production (in words)” value (sebum production) was “inability of azelaic acid to reduce sebum production”.

For `C[C@]12CCC(=O)C=C1CC[C@@H]1[C@@H]2[C@@H](O)C[C@@]2(C)[C@H]1CC[C@]2(O)C(=O)CO` [Cortisol], the “QUANTITY OF LIPIDS MEASURED” value ([1]; 0.1 μM) was 71 and the “REDUCTION IN LIPOGENESIS/CONTROL” value ([1]; 0.1 μM) was −29%.

From patent US20050244360A1, “Cosmetic composition for greasy skin care, containing a carboxylic fatty acid or a derivative thereof” (L'OREAL, priority 2003, published 2005)
